Values after ≈ are worked out from the molar mass of the structure shown. Values joined by “and” are separate entries in the source; they are usually repeats but may differ in a detail not shown here. Equal entries are not always repeated. Where two headings read alike, the source gives them in different places.
Experiments:
[1] = literature value; cited from earlier work
[2] = Reduction kinetics on oxidized βME; assay type: physicochemical; settings: for kobs for reduction of βMEox: 5 mM each
[3] = Reduction potential from equilibrium reaction with oxidized DTT (HPLC, Nernst equation); assay type: physicochemical; settings: for Keq of equilibrium reaction with DTTox / Disulfide E°′ (reduction potential of oxidized form): 50 mM potassium phosphate buffer, pH 7.0, EDTA 2 mM, 24 h; for Disulfide E°′ (reduction potential of oxidized form): assuming −0.327 V for DTT, this work
[4] = Determination of BMMP solubility in buffered water (1H NMR); assay type: physicochemical; settings: aqueous buffer, thermodynamic from solid; 50 mM sodium phosphate buffer, pH 7.0
Method: A 20 mM stock solution of 2-butyne-1,4-diol (an ^1H NMR standard) was prepared in 50 mM sodium phosphate buffer, pH 7.0. BMMP was added to a solution containing 1 mL of this buffer and 0.1 mL of D2O until the solution was saturated completely. The mixture was sonicated to ensure complete dissolution and filtered into an NMR tube, and its spectrum was acquired. The solubility of BMMP was determined to be (64±14) mM by integration of the ^1H NMR peak areas of the aryl CH and methylene CH2SH protons for BMMP and the CH2OH peak for 2-butyne-1,4-diol.

[5] = target: T1, creatine kinase-Cys283-S-S-G (Oryctolagus cuniculus, UniProt P00563); assay: Reactivation of creatine kinase (reduction of mixed disulfide with glutathione); assay type: biochemical, rabbit; settings: for kobs for reduction of creatine kinase-Cys283-S-S-G: 0.10 M imidazole-HCl buffer, pH 7.0, EDTA 2 mM
T1 construct: creatine kinase (lyophilized powder from rabbit muscle); purchased Sigma-Aldrich (St. Louis, Mo.); host or cells: rabbit muscle (natural source)
T1 sequence (P00563 whole entry): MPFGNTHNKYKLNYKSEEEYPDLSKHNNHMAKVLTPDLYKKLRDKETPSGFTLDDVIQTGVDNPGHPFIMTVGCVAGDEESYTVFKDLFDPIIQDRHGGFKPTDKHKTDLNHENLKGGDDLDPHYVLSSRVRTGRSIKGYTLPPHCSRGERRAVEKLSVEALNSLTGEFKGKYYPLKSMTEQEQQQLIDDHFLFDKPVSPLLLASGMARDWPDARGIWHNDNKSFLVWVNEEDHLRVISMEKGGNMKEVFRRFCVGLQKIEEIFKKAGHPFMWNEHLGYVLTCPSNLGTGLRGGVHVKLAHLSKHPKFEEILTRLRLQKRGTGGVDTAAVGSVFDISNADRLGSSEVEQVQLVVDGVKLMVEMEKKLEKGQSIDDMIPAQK
Method: (§1) Commercial reagents were used without further purification. Dithiothreitol (DTT) was from Research Products International (Mt. Prospect, Ill.). […].
[21, 23] Enzymatic activity (%) at particular time points was calculated by dividing the number of active units of enzyme by the possible number of units in solution, and was plotted in FIG. 2B. Values of kobs (Table 2) were determined using eq.

papain-Cys25-S—S—CH3 = target: T2, papain-Cys25-S—S—CH3 (Carica papaya, UniProt P00784); assay: Reactivation of papain (reduction of active-site mixed disulfide); assay type: biochemical; settings: for kobs for reduction of papain-Cys25-S-S-CH3: 0.10 M imidazole-HCl buffer, pH 7.0, EDTA 2 mM
T2 construct: Papain (lyophilized powder from papaya latex); purchased Sigma-Aldrich (St. Louis, Mo.); host or cells: papaya latex (natural source)
T2 sequence (P00784 134-345): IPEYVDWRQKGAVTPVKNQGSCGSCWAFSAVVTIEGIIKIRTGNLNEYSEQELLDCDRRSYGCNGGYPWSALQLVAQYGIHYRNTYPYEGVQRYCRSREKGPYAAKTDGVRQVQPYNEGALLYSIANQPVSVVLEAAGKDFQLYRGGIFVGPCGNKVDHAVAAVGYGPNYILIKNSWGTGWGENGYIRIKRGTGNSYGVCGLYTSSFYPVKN
Method: as §1
Papain was inactivated by forming a mixed disulfide upon treatment of its active-site cysteine (Cys25) with S-methyl methanethiosulfonate following a procedure reported previously. A 1.25 mL solution of papain-Cys25-S—S—CH3 (4.4×10^−6 M) in a degassed 0.10 M imidazole-HCl buffer, pH 7.0, containing EDTA (2 mM) was placed in a 1.5-mL LoBind Eppendorf tube. At time t=0, 10 μL of a 1 mM stock solution of BMMP was added, and a timer was started. […] A unit of protein is defined as the amount of enzyme required to produce 4-nitroaniline at a rate of 1 μmol/min. The units of active papain at each time point were calculated by using an extinction coefficient for 4-nitroaniline of ε=8,800 M^−1cm^−1 at 410 nm. […] Y=enzymatic activity (%) at any time point was determined by dividing the number of active units of enzyme by the possible number of units in the solution, and plotted in FIG. 2A. To determine the value of the second-order rate constant (kobs) for the reducing agents, the second order rate equation (eq 4) was transformed into eq 5, which was fitted to the data with the program Prism 5.0.

[6] = literature value [37]; cited from earlier work
[7] = Determination of thiol pKa values (pH titration monitored by UV absorbance at 238 nm); assay type: physicochemical
Method: Thiol pKa values were determined using a Varian Cary 60 UV-Vis spectrophotometer. Kinetic studies on proteins were carried out using a Varian Cary 400 Bio UV-Vis spectrometer with a Cary temperature controller at the Biophysics Instrumentation Facility at Madison (BIF). All NMR spectra were acquired at ambient temperature with a Bruker DMX-400 Avance spectrometer and a Bruker Avance III 500ii with cyroprobe spectrometer at the National Magnetic Resonance Facility at Madison (NMRFAM), and were referenced to TMS or residual protic solvent.
The thiol pKa values are determined by following a procedure reported previously that exploits the elevated absorbance of the deprotonated thiolate at 238 nm.
For BMMP determination, in eq 1, CT is the total thiol concentration, εSH^SH is the extinction coefficient of the doubly protonated form of BMMP, εSH^S- is the extinction coefficient of the singly protonated form of BMMP, and εS-^S- is the extinction coefficient of the doubly deprotonated form of BMMP.
For comparison, the thiol pKa values for DMH were determined in a similar fashion.

[8] = cited from earlier work
[9] = target: T1, creatine kinase-Cys283-S-S-G; settings: literature [23]; cited from earlier work
[10] = pH 5.0, 50 mM sodium acetate buffer
[11] = pH 7.0, 50 mM potassium phosphate buffer
[12] = Thiol pKa (second value, in parentheses)

In the case of N[C@H](CS)CCS [drawing 6], the “Disulfide E°′ (reduction potential of oxidized form)” value [1] is given as −0.317 V^d.
With SCc1nccnc1CS [BMMP, 2,3-bis(mercaptomethyl)pyrazine] the “Observed rate of reduction of βMEox at pH 5.0 compared with DTT at pH 7.0” value ([2]; BMMP pH 5.0 vs DTT pH 7.0) was “comparable”, the “kobs^BMMP/kobs^DTBA, reduction of βMEox” value ([2]; pH 5.0) was 3.6 and 4 and the “kobs^BMMP/kobs^DTT, reduction of βMEox” value ([2]; pH 5.0) was 14.1 and 14. For the same compound, the “kobs for reduction of βMEox” value [2, 10] was 0.0183 ± 0.0007 M⁻¹ s⁻¹, the “kobs^BMMP/kobs^DMH, reduction of βMEox” value ([2]; pH 7.0) was 1.8 and the “kobs^BMMP/kobs^DTBA, reduction of βMEox” value ([2]; pH 7.0) was 3.2 and 3. The “kobs^BMMP/kobs^DTT, reduction of βMEox” value ([2]; pH 7.0) was 11.4 and 11, the “kobs for reduction of βMEox” value [2, 11] was 1.02 ± 0.07 M⁻¹ s⁻¹ and the “Keq of equilibrium reaction with DTTox” value [3] was 0.137±0.036. The “Disulfide E°′ (reduction potential of oxidized form)” value [3] was −0.301±0.003 V, the “Free energy by which equilibrium favors reduced BMMP and oxidized DTT” value ([3]; reduced BMMP + oxidized DTT vs oxidized BMMP + reduced DTT) was -1.2 kcal/mol and the solubility [4] was 64 ± 14 mM (≈ 11 mg/mL). The “kobs for reduction of creatine kinase-Cys283-S-S-G” value [5] was 476 ± 34 M⁻¹ s⁻¹, the “kobs^BMMP/kobs^DTBA, reduction of creatine kinase Cys283-S—S-glutathione” value ([5]; pH 7.0) was 6.8 and 7 and the “kobs^BMMP/kobs^DTT, reduction of creatine kinase Cys283-S—S-glutathione” value ([5]; pH 7.0) was 5.8 and 6. The “kobs for reduction of papain-Cys25-S-S-CH3” value (papain-Cys25-S—S—CH3) was 1139 ± 62 M⁻¹ s⁻¹ and the “kobs^BMMP/kobs^DTT, reduction of papain Cys25-S—S—CH3” value (papain-Cys25-S—S—CH3; pH 7.0) was 13.1 and 13.
For Cc1cnc(C)cn1 [2,5-dimethylpyrazine], the “pKa of the conjugate acid” value [6] is given as 2.1.
For CN(C(=O)CS)N(C)C(=O)CS [DMH, N,N′-dimethyl-N,N′ bis(mercaptoacetyl)hydrazine, reference compound], the “Rate of reduction of βMEox compared with other dithiols” value ([2]; pH 7.0) was “faster than did DTT or DTBA but slower than did BMMP”, the “kobs for reduction of βMEox” value [2, 11] was 0.56 ± 0.04 M⁻¹ s⁻¹ and the pKa ([7]; Thiol pKa (first, lower value)) was 8 ± 0.2. The pKa [7, 12] was 9.1 ± 0.1, the “Thiol pKa (first, lower value)” value ([8]; literature value) was 7.6 and the “Thiol pKa (second value, in parentheses)” value ([8]; literature value) was 8.9. The “Keq of equilibrium reaction with DTTox” value [3] was 0.0065±0.0020 and the “Disulfide E°′ (reduction potential of oxidized form)” value [3] was −0.262±0.004 V and −0.262±0.003 V.
For CN(C(=O)CS)N(C)C(=O)CS [drawing 5], the “Thiol pKa (first, lower value)” value [7] was 8.0 ± 0.2, the “Thiol pKa (second value, in parentheses)” value [7] was 9.1 ± 0.1 and the “Disulfide E°′ (reduction potential of oxidized form)” value [3] was −0.262 ± 0.004 V^c.
In the case of O[C@H](CS)[C@H](O)CS [DTT, dithiothreitol, reference compound], the “kobs for reduction of βMEox” value [2, 10] is listed as 0.0013 ± 0.0001 M⁻¹ s⁻¹, the “kobs for reduction of βMEox” value [2, 11] is listed as 0.090 ± 0.005 M⁻¹ s⁻¹ and the “Fraction in the reactive thiolate form” value ([8]; neutral pH) is listed as “less than 1%”. The “kobs for reduction of creatine kinase-Cys283-S-S-G” value [5] was 82 ± 3 M⁻¹ s⁻¹, the “Disulfide E°′ (reduction potential of oxidized form)” value [1] was −0.327 V and the “kobs for reduction of papain-Cys25-S-S-CH3” value (papain-Cys25-S—S—CH3) was 87 ± 3 M⁻¹ s⁻¹.
For OC(CS)[C@H](O)CS (mixture of isomers), the “Disulfide E°′ (reduction potential of oxidized form)” value [1] is listed as −0.327 V^b.
In the case of N[C@H](CS)CCS [DTBA, dithiobutylamine, reference compound], the “kobs for reduction of βMEox” value [2, 10] is listed as 0.0051 ± 0.0004 M⁻¹ s⁻¹, the “kobs for reduction of βMEox” value [2, 11] is listed as 0.32 ± 0.02 M⁻¹ s⁻¹ and the “Rate of reduction of creatine kinase mixed disulfide compared with DTT” value [9] is listed as “comparable to that of DTT”. For the same compound, the “kobs for reduction of creatine kinase-Cys283-S-S-G” value [5] was 70 ± 2 M⁻¹ s⁻¹ and the “kobs for reduction of papain-Cys25-S-S-CH3” value (papain-Cys25-S—S—CH3) was 950 ± 51 M⁻¹ s⁻¹.
In the case of SCc1nccnc1CS [drawing 7], the pKa ([7]; Thiol pKa (first, lower value)) is reported as 7.6 ± 0.1, the pKa [7, 12] is reported as 9 and the “Disulfide E°′ (reduction potential of oxidized form)” value [3] is reported as −0.301 ± 0.003 V^c.

From patent US9371521B2, “Substituted pyrazinedithiol reducing agents” (Wisconsin Alumni Research Foundation, priority 2014, dated 2016)
